In patent US20200237909A1, “METHODS OF TREATING OR PREVENTING BREAST CANCER METASTASES USING ANTIBODIES TO JAGGED1 AND CHEMOTHERAPEUTIC AGENTS” (The Trustees of Princeton University, priority 2017, published 2020):

Legend:
Jagged1 expression = experiment: Jagged1 mRNA expression in cell lines after chemotherapy agents; assay type: cell-based; conditions: 48 hr; for Jagged1 expression: MC3T3-E1 pre-osteoblast cells and MSCs, 25 nM paclitaxel or 10 μM cisplatin; for Jagged1 induction: endothelial cells, RAW 264.7 pre-osteoclasts, SCP28 and SUM1315-M1B1 tumor cells
Description: FIG. 5. Chemotherapy induces Jagged1 expression in osteoblast lineage cells. (A) Jagged1 mRNA expression in osteoblast MC3T3-E1-Clone #4 osteoblast cells and mesenchymal stem cells (MSC), HPMECL endothelial cells (endo), RAW264.7 pre-osteoclast cells, and SCP28 and SUM1315-M1B1 breast tumor cells 48 hr post-treatment with 25 nM paclitaxel or 10 μM cisplatin. (B) Athymic nude mice were i.v. injected with PBS or cisplatin and euthanized 48 hr later. Hind limb bones were collected for IF staining against Alp (green) and Jagged1 (red). Nuclei were counter-stained with DAPI (blue). (C-E) Athymic nude mice were treated with either PBS or cisplatin on Day 0. One day after the pre-treatment, MCF7 (C), SUM1315-M1B1 (D) or SCP28 (E) cells were delivered locally to the hind limbs of these mice by IIA injection. BLI imaging and quantification of BLI signal at Day 4. (F) Mice from experiment in E were euthanized after BLI imaging at Day 4. Hind limbs were fixed and processed for IF imaging of GFP-expressing tumor cells (green) and ALP positive osteoblasts (red). Size bar: 80 μm. In A: n=3. *p<0.05 by Student's t-test. In C-E: n=5. *p<0.05 by Student's t-test. #: statistically insignificant.
The possibility that chemotherapy agents may induce Jagged1 expression in either tumor cells or in the bone stromal cells was considered. […] Key stromal cell types in bone metastasis include osteoclasts, osteoblasts and their progenitors (such as mesenchymal stem cells (MSCs)), and endothelial cells. Whether Jagged1 could be induced in these cells and various breast cancer cell lines upon treatment of two different chemotherapy agents, paclitaxel and cisplatin, which are commonly used in the treatment of breast cancer, was tested.
Total RNAs were isolated from cells using RNeasy kit (Qiagen) following manufacturer's instructions. RNAs were reverse transcribed into cDNAs by using Superscript III reverse transcription kit (Invitrogen). Real-time RT-PCR was performed on ABI 7900 96 HT series PCR machine (Applied Biosystem) using SYBR Green Supermix (Bio-Rad Laboratories). The gene-specific primer sets were used at a final concentration of 0.5 μM. All real-time RT-PCR assays were performed in duplicate in at least two independent experiments. Relative expression values of each target gene were normalized to GAPDH mRNA level.

[1] = test system: Jagged1 expression in osteoblast cells; experiment: Jagged1/Alp immunostaining of hind limb bones after cisplatin; assay type: in vivo, nude mice; conditions: 48 hours after treatment
Description: FIG. 5. Chemotherapy induces Jagged1 expression in osteoblast lineage cells. (A) Jagged1 mRNA expression in osteoblast MC3T3-E1-Clone #4 osteoblast cells and mesenchymal stem cells (MSC), HPMECL endothelial cells (endo), RAW264.7 pre-osteoclast cells, and SCP28 and SUM1315-M1B1 breast tumor cells 48 hr post-treatment with 25 nM paclitaxel or 10 μM cisplatin. (B) Athymic nude mice were i.v. injected with PBS or cisplatin and euthanized 48 hr later. Hind limb bones were collected for IF staining against Alp (green) and Jagged1 (red). Nuclei were counter-stained with DAPI (blue). (C-E) Athymic nude mice were treated with either PBS or cisplatin on Day 0. […] BLI imaging and quantification of BLI signal at Day 4. […]
To confirm this finding in vivo, female nude mice were treated with either PBS or cisplatin. […] In the PBS control group, Jagged1-positive cells were rarely detected, and mostly co-localizing with ALP-positive osteoblasts.
Hindlimb bones were excised from mice at the end point of each experiment, immediately after the last BLI time point. […] For quantitative analysis of lesion area, a 10× objective was used to focus on the tumor region of interest and images were acquired using the AxioCamICc3 camera set to an exposure of around 100 ms. Osteoclast number was assessed as multinucleated TRAP+ cells and reported as number/field. […]

[2] = test system: Notch downstream genes (human HES2, HEY1, HEY2); experiment: Notch downstream gene expression in tumor cells co-cultured with MSC after chemotherapy; assay type: cell-based; conditions: co-culture tumor cells after chemotherapy
SUM1315-M1B1 cells = experiment: SUM1315-M1B1 bone metastasis model; assay type: in vivo, athymic nude mice; conditions: Week 4
From the text: FIG. 9. 15D11 synergizes with chemotherapy to inhibit bone metastasis in the SUM1315-M1B1 model. (A) Western blot analysis of Jagged1 protein expression level in SUM1315-M1B1, SPC2, SCP28-Vector, and SCP28-Jagged1 cells. β-actin was used as loading control. (B) Schematic representation of the experimental procedure. In brief, SUM1315-M1B1 cells were IC injected into 4-6 weeks female athymic nude mice to generate bone metastases. One week later, mice were randomized into four groups and treated with respective therapeutic agents. Bone metastasis progression was monitored by weekly BLI imaging until the experimental endpoint (4 weeks after injection). (C) Representative BLI and X-ray images of mice in Week 4 right before euthanizing the mice. (D) Quantification of bone metastasis burden each week based on BLI imaging from the experiment. […] (E) Representative H&E staining and TRAP staining images of hind limb bones from experiment in A were shown. Scale bar: 100 μm. […] AU: arbitrary unit. n=10, **p<0.01 by Student's t-test. (G) Quantification of the number of TRAP-positive osteoclasts per field. n=5, **p<0.01 by Student's t-test.
To validate whether the observed synergy of combined treatment can also be observed in other models of bone metastasis beyond the MDA-MB-231 series, the bone metastatic SUM1315-M1B1 cell line was used. […]

| Compound | Jagged1 expression (Jagged1 expression) | Jagged1 induction (Jagged1 expression) | Jagged1 expression (immunostaining, Alp positive cells) [1] | Notch downstream genes HES2, HEY1, HEY2 [2] | bone metastasis burden (BLI signal) (SUM1315-M1B1 cells) |
| --- | --- | --- | --- | --- | --- |
| N.N.[Cl][Pt][Cl] [cisplatin] | significantly increased | no significant induction | much stronger Jagged1 expression | significantly upregulated |  |
| CC(=O)O[C@H]1C(=O)[C@@]2(C)[C@H]([C@H](OC(=O)c3ccccc3)[C@]3(O)C[C@H](OC(=O)[C@H](O)[C@@H](NC(=O)c4ccccc4)c4ccccc4)C(C)=C1C3(C)C)[C@]1(OC(C)=O)CO[C@@H]1C[C@@H]2O [paclitaxel] | significantly increased | no significant induction |  |  | minor reduction of BLI signal |
